Test system: 966289-007-R4-J1-PDC complex spheroid viability
Assay: Anticancer human tumor 966289-007-R4-J1-PDC patient-derived pancreatic adenocarcinoma cell line growth inhibition [GQUAD]
Conditions: for IC50: curve of first compound; for viability, T/C: stronger effect = lower value
Description: DNA G-quadruplex Stabilizer Agents in Combinations in Complex Spheroids
A high-throughput screen of multi-cell type tumor spheroids was designed to identify active combinations of DNA G-quadruplex stabilizer agents and targeted small molecules. Complex spheroids include a stromal component modeled by human endothelial cells (HUVEC) and fibroblasts modeled by human mesenchymal stem cells (MSCs). The concentration ranges selected for each drug and investigational agent were based upon clinically achievable concentrations if the clinical Cmax of the agent was known.
Compounds. The drugs and investigational agents: pidnarulex (CX-5461; NSC782164), APTO-253 (NSC789042), BRACO-19 (NSC847499), peposertib (NSC802822), ceralasertib (NSC780249), elimusertib (NSC800525), camonsertib (NSC841442), AZD-1390 (NSC803789), olaparib (NSC753686), talazoparib (NSC767125), ART-558 (NSC835418), sotorasib (NSC818433), MRTX-1133 (NSC836407), SN-38 (NSC673596), topotecan (NSC609699), etoposide (NSC141540), doxorubicin (NSC123127), gemcitabine (NSC613327), 5-fluorouracil (NSC19893), paclitaxel (NSC125973), vemurafenib (NSC761431), panobinostat (NSC761190), R-306465 (JNJ-16241199; NSC773264), adavosertib (NSC754352), TP-3654 (NSC805149), carboplatin (NSC241240), KSQ-4279 (NSC840948), and staurosporine (NSC755774) were obtained from the National Cancer Institute (NCI) Developmental Therapeutics Program Chemical Repository (34). The FDA-approved anticancer drug set is available from the NCI Developmental Therapeutics Program. […] The stock solutions were prepared in dimethyl sulfoxide (DMSO, Sigma-Aldrich, St. Louis, MO, cat. D2650) at 800-fold the tested concentration and stored at -70 degrees C prior to their use. All drugs and investigational agents were tested over a range starting from a high concentration at or near the clinical Cmax and decreasing in half-log increments. If the clinical Cmax for an agent had not been determined, the highest concentration tested was 10 microM.
2.3 Cell Culture. All cells were maintained in an incubator at 37 degrees C and 5% CO2 with 95% humidity. The PDC lines were cultured according to standard operating procedures established by the NCI PDMR. All PDCs were thawed and cultured in Matrigel-coated flasks prepared with a working solution of 1X Ham's F-12 nutrient mix, without supplementation (Invitrogen, cat. 11765054), 100 U/mL penicillin-streptomycin (Invitrogen, cat. 15140122), and 2.5% Matrigel (Corning Inc., cat. 354248) for the first three passages. The 857933-349-R-J2-PDC line was cultured in 6C/Colon 1B media, which includes advanced DMEM/F-12 (Thermo Fisher Scientific, cat. 12634028), 10 mM HEPES (Thermo Fisher Scientific, cat. 15630080), 1X GlutaMAX supplement (Thermo Fisher Scientific, cat. 35050061), 0.1 mg/mL primocin (InvivoGen, cat. ant-pm-2), 10% defined fetal bovine serum, heat inactivated (HyClone Laboratories Inc., cat. SH30070.03HI), 50% L-WRN conditioned media (ATCC, cat. CRL-3276), 1.25 mM N-Acetyl-L-cysteine (Sigma-Aldrich, cat. A9165), 10 mM nicotinamide (Sigma-Aldrich, cat. N0636), 1X B-27 supplement (Thermo Fisher Scientific, cat. 17504044), 1X N-2 supplement (Thermo Fisher Scientific, cat. 17502048), 10 microM Y-27632 dihydrochloride (Tocris Bioscience, cat. 1254), and 50 ng/mL human EGF recombinant protein (Thermo Fisher Scientific, cat. PHG0311). The 485176-168-R4-J1-PDC line was cultured in Panc media, which includes all 6C/Colon 1B media components plus 100 ng/mL human FGF-10 (Thermo Fisher Scientific, cat. 100-26), 500 nM SB-431542 (Selleckchem, cat. S1067), and gastrin (Tocris, cat. 3006).
[…]

[1] = second compound 0.0316 µM, first compound 0.0316 µM
[2] = second compound 0.0316 µM, first compound 0.1 µM
[3] = second compound 0.0316 µM, first compound 0.316 µM
[4] = second compound 0.0316 µM, first compound 1 µM
[5] = second compound 0.0316 µM, first compound 3.16 µM
[6] = second compound 0.0316 µM, first compound 10 µM
[7] = second compound 0.1 µM, first compound 0.0316 µM
[8] = second compound 0.1 µM, first compound 0.1 µM
[9] = second compound 0.1 µM, first compound 0.316 µM
[10] = second compound 0.1 µM, first compound 1 µM
[11] = second compound 0.1 µM, first compound 3.16 µM
[12] = second compound 0.1 µM, first compound 10 µM
[13] = second compound 0.316 µM, first compound 0.0316 µM
[14] = second compound 0.316 µM, first compound 0.1 µM
[15] = second compound 0.316 µM, first compound 0.316 µM
[16] = second compound 0.316 µM, first compound 1 µM
[17] = second compound 0.316 µM, first compound 3.16 µM
[18] = second compound 0.316 µM, first compound 10 µM
[19] = second compound 1 µM, first compound 0.0316 µM
[20] = second compound 1 µM, first compound 0.1 µM
[21] = second compound 1 µM, first compound 0.316 µM
[22] = second compound 1 µM, first compound 1 µM
[23] = second compound 1 µM, first compound 3.16 µM
[24] = second compound 1 µM, first compound 10 µM
[25] = second compound 3.16 µM, first compound 0.0316 µM
[26] = second compound 3.16 µM, first compound 0.1 µM
[27] = second compound 3.16 µM, first compound 0.316 µM
[28] = second compound 3.16 µM, first compound 1 µM
[29] = second compound 3.16 µM, first compound 3.16 µM
[30] = second compound 3.16 µM, first compound 10 µM
[31] = second compound 10 µM, first compound 0.0316 µM
[32] = second compound 10 µM, first compound 0.1 µM
[33] = second compound 10 µM, first compound 0.316 µM
[34] = second compound 10 µM, first compound 1 µM
[35] = second compound 10 µM, first compound 3.16 µM
[36] = second compound 10 µM, first compound 10 µM
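Further: spheroids exposed to the agents for seven days before readout.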
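Wherever viability, T/C is given: percent viability relative to DMSO vehicle control wells taken as 100%.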

For `COc1ccc([C@@H](O)c2cc(-c3ncnc4cc(N5CCOCC5)ccc34)c(F)cc2Cl)nn1` + CN(C)c1ccc(Nc2c3ccc(NC(=O)CCN4CCCC4)cc3nc3cc(NC(=O)CCN4CCCC4)ccc23)cc1, the IC50 (second compound 0.0316 µM) was greater than 10 µM, the IC50 (second compound 0.1 µM) was greater than 10 µM and the IC50 (second compound 0.316 µM) was greater than 10 µM. It also gave an IC50 (second compound 1 µM) greater than 10 µM, an IC50 (second compound 3.16 µM) greater than 10 µM and an IC50 (second compound 10 µM) of 1.97 µM. It also gave a viability, T/C [1] of 104%, a viability, T/C [2] of 98.6% and a viability, T/C [3] of 104%. The viability, T/C [4] was 108%, the viability, T/C [5] was 110% and the viability, T/C [6] was 99.5%. For the same compound, the viability, T/C [7] was 101%, the viability, T/C [8] was 97.8% and the viability, T/C [9] was 103%. For the same compound, the viability, T/C [10] was 104%, the viability, T/C [11] was 109% and the viability, T/C [12] was 98.1%. The viability, T/C [13] was 99.8%, the viability, T/C [14] was 99.5% and the viability, T/C [15] was 106%. For the same compound, the viability, T/C [16] was 107%, the viability, T/C [17] was 107% and the viability, T/C [18] was 90.6%. For the same compound, the viability, T/C [19] was 101%, the viability, T/C [20] was 101% and the viability, T/C [21] was 107%. The viability, T/C [22] was 108%, the viability, T/C [23] was 111% and the viability, T/C [24] was 93%. It also gave a viability, T/C [25] of 101%, a viability, T/C [26] of 97.4% and a viability, T/C [27] of 108%. It also gave a viability, T/C [28] of 105%, a viability, T/C [29] of 109% and a viability, T/C [30] of 83.4%. The viability, T/C [31] was 103%, the viability, T/C [32] was 97.3% and the viability, T/C [33] was 101%. The viability, T/C [34] was 89.2%, the viability, T/C [35] was 22.6% and the viability, T/C [36] was 8.27%.

`O=C(c1cc(Cc2n[nH]c(=O)c3ccccc23)ccc1F)N1CCN(C(=O)C2CC2)CC1` + CN(C)c1ccc(Nc2c3ccc(NC(=O)CCN4CCCC4)cc3nc3cc(NC(=O)CCN4CCCC4)ccc23)cc1 was tested, and the IC50 (second compound 0.0316 µM) was 4.87 µM, the IC50 (second compound 0.1 µM) was 5.02 µM and the IC50 (second compound 0.316 µM) was 4.91 µM. For the same compound, the IC50 (second compound 1 µM) was 5.07 µM, the IC50 (second compound 3.16 µM) was 3.74 µM and the IC50 (second compound 10 µM) was 1.93 µM. It also gave a viability, T/C [1] of 106%, a viability, T/C [2] of 104% and a viability, T/C [3] of 110%. For the same compound, the viability, T/C [4] was 105%, the viability, T/C [5] was 74.2% and the viability, T/C [6] was 9.57%. For the same compound, the viability, T/C [7] was 104%, the viability, T/C [8] was 97.9% and the viability, T/C [9] was 107%. For the same compound, the viability, T/C [10] was 109%, the viability, T/C [11] was 76.7% and the viability, T/C [12] was 10.2%. For the same compound, the viability, T/C [13] was 100%, the viability, T/C [14] was 103% and the viability, T/C [15] was 101%. The viability, T/C [16] was 108%, the viability, T/C [17] was 75.1% and the viability, T/C [18] was 9.35%. It also gave a viability, T/C [19] of 99.7%, a viability, T/C [20] of 99.3% and a viability, T/C [21] of 104%. It also gave a viability, T/C [22] of 109%, a viability, T/C [23] of 79% and a viability, T/C [24] of 8.19%. The viability, T/C [25] was 105%, the viability, T/C [26] was 104% and the viability, T/C [27] was 101%. It also gave a viability, T/C [28] of 107%, a viability, T/C [29] of 57.4% and a viability, T/C [30] of 6.49%. For the same compound, the viability, T/C [31] was 102%, the viability, T/C [32] was 103% and the viability, T/C [33] was 104%. For the same compound, the viability, T/C [34] was 95.7%, the viability, T/C [35] was 15.6% and the viability, T/C [36] was 3.36%.
